Our source for the IC50 and EC50 values is patent publication US20230391772A1, “METHODS AND COMPOSITIONS FOR TARGETED PROTEIN DEGRADATION” (Ranok Therapeutics (Hangzhou) Co. Ltd., priority 2020, published 2023).

One assay deals with KRAS(G12C) (Homo sapiens, UniProt P01116, G12C). As to the kind of experiment: KRAS(G12C)/SOS1 homogeneous time-resolved fluorescence (HTRF) assay. To be noted: absence of GTP, 4° C. for 3 hr, read-out: KRAS (G12C) binding. Set-up: purchased Cisbio 63ADK000CB16PEG. The method, boiled down: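 Three-hour incubation at 4 °C of 3-fold compound dilutions (lowest 1.02 nM) with KRAS(G12C), SOS1 and detection reagents, GTP absent. Disruption of the KRAS(G12C)/SOS1 complex detected by time-resolved fluorescence.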
Sequence of KRAS(G12C) (P01116 1-188 isoform P01116-2 G12C): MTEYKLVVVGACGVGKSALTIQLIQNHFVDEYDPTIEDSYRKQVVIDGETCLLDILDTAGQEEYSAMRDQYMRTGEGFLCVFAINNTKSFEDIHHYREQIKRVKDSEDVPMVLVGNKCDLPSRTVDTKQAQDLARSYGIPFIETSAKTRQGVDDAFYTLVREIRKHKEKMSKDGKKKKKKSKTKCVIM
A general note: TR-FRET usually uses a lanthanide donor and a delayed reading to cut background.

Assay [1] concerns MIA PaCa-2 human pancreatic carcinoma. As to the kind of experiment: MIA PaCa-2 CCK-8 proliferation assay. Format: cell-based. To be noted: Homo sapiens, MIA PaCa-2, 72 h, MIA PaCa-2 cells. An outline of the steps: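 KRAS(G12C) lines were used: MIA PaCa-2 with 2 copies, and NCI-H358 and NCI-H23 with 1 copy each. Cells were treated with 3-fold compound dilutions from 20 μM to 1.02 nM, and proliferation was read by CCK-8 absorbance. % inhibition was calculated against DMSO-treated cells after subtracting the cell-free medium blank.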
On the technique in general: Tetrazolium assays rely on reduction of a dye to a coloured formazan, in cell work by metabolically active cells.

For the next assay, the target named is T1, HSP90a protein (Homo sapiens, UniProt P07900).
T1 construct: purchased BPS Bioscience 50298
Put plainly: HSP90α-binding fluorescent polarization (FP) assay, BODIPY-labeled RNK04010 probe. To be noted: FP competition with RNK04010 (BODIPY-labeled), 5 nM, 300 min at 25° C. The method, boiled down:
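Binding was scored by fluorescence polarization after adding N-terminal HSP90a to wells holding probe and compound, with compound tested from 20 μM to 5.2 nM. Probe-dependent times at 25° C were 120 min for FITC-geldanamycin and 300 min for RNK04010-BODIPY, both at 5 nM final.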

Turning to `C=CC(=O)N1CCN(c2nc(OC[C@@H]3C[C@H](N4CCC5(CCN(C(=O)C6CCN(Cc7ccc(-n8c(O)nnc8-c8cc(C(C)C)c(O)cc8O)cc7)CC6)CC5)CC4)CN3C)nc3c2CCN(c2cccc4cccc(Cl)c24)C3)C[C@@H]1CC#N` [Compound 318, 2-[(2S)-4-[7-(8-chloronaphthalen-1-yl)-2-{[(2S,4S)-4-{9-[1-({4-[3-(2,4-dihydroxy-5-isopropylphenyl)-5-hydroxy-1,2,4-triazol-4-yl]phenyl}methyl)piperidine-4-carbonyl]-3,9-diazaspiro[5.5]undecan-3-yl}-1-methylpyrrolidin-2-yl]methoxy}-5H,6H,8H-pyrido[3,4-d]pyrimidin-4-yl]-1-(prop-2-enoyl)piperazin-2-yl]acetonitrile], the IC50 at KRAS(G12C) and at HSP90a protein was below 0.1 µM in each case. The compound further gave an EC50 in assay [1] of 0.1 to 1 µM.
Take `C=CC(=O)N1CCN(c2nc(OC[C@@H]3C[C@H](N4CCC(C(=O)N5CCN(CCNC(=O)c6nnc(-c7cc(C(C)C)c(O)cc7O)n6-c6ccccc6)CC5)CC4)CN3C)nc3c2CCN(c2cccc4cccc(Cl)c24)C3)C[C@@H]1CC#N` [Compound 320, N-[2-(4-{1-[(3S,5S)-5-({[7-(8-chloronaphthalen-1-yl)-4-[(3S)-3-(cyanomethyl)-4-(prop-2-enoyl)piperazin-1-yl]-5H,6H,8H-pyrido[3,4-d]pyrimidin-2-yl]oxy}methyl)-1-methylpyrrolidin-3-yl]piperidine-4-carbonyl}piperazin-1-yl)ethyl]-5-(2,4-dihy-droxy-5-isopropylphenyl)-4-phenyl-1,2,4-triazole-3-carboxamide]: the IC50 at KRAS(G12C) and on HSP90a protein was below 0.1 µM each time. The compound also showed an EC50 in assay [1] of 0.1 to 1 µM.
With `C=CC(=O)N1CCN(c2nc(OC[C@@H]3C[C@H](N4CCC(C(=O)N5CCN(Cc6ccc(-n7c(O)nnc7-c7cc(C)c(O)cc7O)cc6)CC5)CC4)CN3C)nc3c2CCN(c2cccc4cccc(Cl)c24)C3)C[C@@H]1CC#N` [Compound 321, 2-[(2S)-4-[7-(8-chloronaphthalen-1-yl)-2-{[(2S,4S)-4-{4-[4-({4-[3-(2,4-dihydroxy-5-methylphenyl)-5-hydroxy-1,2,4-triazol-4-yl]phenyl}methyl)piperazine-1-carbonyl]piperidin-1-yl}-1-methylpyrrolidin-2-yl]methoxy}-5H,6H,8H-pyrido[3,4d]-pyrimidin-4-yl]-1-(prop-2-enoyl)piperazin-2-yl]acetonitrile], the IC50 at KRAS(G12C) and on HSP90a protein was below 0.1 µM each time. This compound registered a concentration giving a half-maximal response (EC50) in assay [1] of 0.1 to 1 µM.
With `C=CC(=O)N1CCN(c2nc(OC[C@@H]3C[C@H](N4CCC(C(=O)N5CCN(Cc6ccc(-n7c(C(=O)NCC(F)(F)C(F)(F)F)nnc7-c7cc(C(C)C)c(O)cc7O)cc6)CC5)CC4)CN3C)nc3c2CCN(c2cccc4cccc(Cl)c24)C3)C[C@@H]1CC#N` [Compound 323], the IC50 on KRAS(G12C) and at HSP90a protein was below 0.1 µM in each case. In assay [1], this compound yielded a half-maximal effective concentration (EC50) below 0.1 µM.
As to `C=CC(=O)N1CCN(c2nc(OC[C@@H]3CC[C@H](C(=O)N4CCN(Cc5ccc(-n6c(O)nnc6-c6cc(C(C)C)c(O)cc6O)cc5)CC4)N3C)nc3c2CCN(c2cccc4cccc(Cl)c24)C3)C[C@@H]1CC#N` [Compound 324, 2-[(2S)-4-[7-(8-chloronaphthalen-1-yl)-2-{[(2S,5R)-5-[4-({4-[3-(2,4-dihydroxy-5-isopropylphenyl)-5-hydroxy-1,2,4-triazol-4-yl]phenyl}methyl)piperazine-1-carbonyl]-1-methylpyrrolidin-2-yl]methoxy}-5H,6H,8H-pyrido[3,4-d]pyrimidin-4-yl]-1-(prop-2-enoyl)piperazin-2-yl]acetonitrile], the IC50 at KRAS(G12C) was 0.1 to 1 µM; at HSP90a protein, below 0.1 µM. The compound further showed an EC50 in assay [1] of 0.1 to 1 µM.
As to `C=CC(=O)N1CCN(c2nc(OC[C@@H]3CC[C@H](C(=O)N4CCN(Cc5ccc(-n6c(O)nnc6-c6cc(C)c(O)cc6O)cc5)CC4)N3C)nc3c2CCN(c2cccc4cccc(Cl)c24)C3)C[C@@H]1CC#N` [Compound 325, 2-[(2S)-4-[7-(8-chloronaphthalen-1-yl)-2-{[(2S,5R)-5-[4-({4-[3-(2,4-dihydroxy-5-methylphenyl)-5-hydroxy-1,2,4-triazol-4-yl]phenyl}methyl)piperazine-1-carbonyl]-1-methylpyrrolidin-2-yl]methoxy}-5H,6H,8H-pyrido[3,4-d]pyrimidin-4-yl]-1-(prop-2-enoyl)piperazin-2-yl]acetonitrile], the IC50 at KRAS(G12C) and on HSP90a protein was below 0.1 µM in each case. In assay [1], this compound displayed an EC50 above 1 µM.
As for `C=CC(=O)N1CCN(c2nc(OC[C@@H]3C[C@H](N4CCC(C(=O)N5CCN(Cc6ccc(-n7c(C(=O)NCCN8CCN(S(C)(=O)=O)CC8)nnc7-c7cc(C(C)C)c(O)cc7O)cc6)CC5)CC4)CN3C)nc3c2CCN(c2cccc4cccc(Cl)c24)C3)C[C@@H]1CC#N` [Compound 327, 4-{4-[(4-{1-[(3S,5S)-5-({[7-(8-chloronaphthalen-1-yl)-4-[(3S)-3-(cyanomethyl)-4-(prop-2-enoyl)piperazin-1-yl]-5H,6H,8H-pyrido[3,4-d]pyrimidin-2-yl]oxy}methyl)-1-methylpyrrolidin-3-yl]piperidine-4-carbonyl}piperazin-1-yl)methyl]phenyl}-5-(2,4-dihydroxy-5-isopropylphenyl)-N-[2-(4-methanesulfonylpiperazin-1-yl)ethyl]-1,2,4-triazole-3-carboxamide], the IC50 at KRAS(G12C) and at HSP90a protein was below 0.1 µM each time. The compound also came in with an EC50 in assay [1] of 0.1 to 1 µM.
With `C=CC(=O)N1CCN(c2nc(OC[C@@H]3C[C@H](N4CCC(C(=O)NCCc5ccc(-n6c(O)nnc6-c6cc(C(C)C)c(O)cc6O)cc5)CC4)CN3C)nc3c2CCN(c2cccc4cccc(Cl)c24)C3)C[C@@H]1CC#N` [Compound 328, 1-[(3S,5S)-5-({[7-(8-chloronaphthalen-1-yl)-4-[(3S)-3-(cyanomethyl)-4-(prop-2-enoyl)piperazin-1-yl]-5H,6H,8H-pyrido[3,4-d]pyrimidin-2-yl]oxy}methyl)-1-methylpyrrolidin-3-yl]-N-(2-{4-[3-(2,4-dihydroxy-5-isopropylphenyl)-5-hydroxy-1,2,4-triazol-4-yl]phenyl}ethyl)piperidine-4-carboxamide], the IC50 on KRAS(G12C) and at HSP90a protein was below 0.1 µM throughout. This compound displayed a concentration for a half-maximal effect (EC50) in assay [1] above 1 µM.
For `C=CC(=O)N1CCN(c2nc(OC[C@@H]3CC[C@H](C(=O)N4CCN(Cc5cc(C(C)C)c(O)cc5O)CC4)N3C)nc3c2CCN(c2cccc4cccc(Cl)c24)C3)C[C@@H]1CC#N` [Compound 329, 2-[(2S)-4[7-(8chloronaphthalen-1-yl)-2-{[(2S,5R)-5-{4-[(2,4-dihydroxy-5-isopropylphenyl)methyl]piperazine-1-carbonyl}-1-methylpyrrolidin-2-yl]methoxy}-5H,6H,8H-pyrido[3,4-d]pyrimidin-4-yl]-1-(prop-2-enoyl)piperazin-2-yl]acetonitrile], the values for the IC50 on KRAS(G12C) and at HSP90a protein were 0.1 to 1 µM and below 0.1 µM, respectively. In assay [1], this compound showed an EC50 above 1 µM.
As for `C=CC(=O)N1CCN(c2nc(OC[C@@H]3C[C@H](N4CCC(C(=O)NCCc5ccc(CN6CCC(Cc7ccc(-n8c(C(=O)NCC(F)(F)F)nnc8-c8cc(C(C)C)c(O)cc8O)cc7)CC6)cc5)CC4)CN3C)nc3c2CCN(c2cccc4cccc(Cl)c24)C3)C[C@@H]1CC#N` [Compound 330, 1-[(3S,5S)-5-({[7-(8-chloronaphthalen-1-yl)-4-[(3S)-3-(cyanomethyl)-4-(prop-2-enoyl)piperazin-1-yl]-5H,6H,8H-pyrido[3,4-d]pyrimidin-2-yl]oxy}methyl)-1-methylpyrrolidin-3-yl]-N-[2-(4-{[4-({4-[3-(2,4-dihydroxy-5-isopropylphenyl)-5-[(2,2,2-trifluoroethyl)carbamoyl]-1,2,4-triazol-4-yl]phenyl}methyl)piperidin-1-yl]methyl}phenyl)ethyl]piperidine-4-carboxamide], the IC50 is 0.1 to 1 µM at KRAS(G12C) and below 0.1 µM at HSP90a protein. In assay [1], this compound showed an EC50 of 0.1 to 1 µM.
In the case of `C=CC(=O)N1CCN(c2nc(OC[C@@H]3CC[C@H](C(=O)N4CCN(C(=O)c5ccc(-n6c(C(=O)NCC(F)(F)F)nnc6-c6cc(C(C)C)c(O)cc6O)cc5)CC4)N3C)nc3c2CCN(c2cccc4cccc(Cl)c24)C3)C[C@@H]1CC#N` [Compound 331, 4-(4-{4-[(2R,5S)-5-({[7-(8-chloronaphthalen-1-yl)-4-[(3S)-3-(cyanomethyl)-4-(prop-2-enoyl)piperazin-1-yl]-5H,6H,8H-pyrido[3,4-d]pyrimidin-2-yl]oxy}methyl)-1-methylpyrrolidine-2-carbonyl]piperazine-1-carbonyl}phenyl)-5-(2,4-dihydroxy-5-isopropylphenyl)-N-(2,2,2-trifluoroethyl)-1,2,4-triazole-3-carboxamide], the IC50 on KRAS(G12C) and on HSP90a protein was below 0.1 µM in each case. The same compound registered an EC50 in assay [1] below 0.1 µM.

As a reminder, the EC50 is the midpoint of the concentration-response curve. A low value points to a more potent agent.
